Experiment: Plasma pharmacokinetics
Settings: during 5 days of dosing

- Plasma concentrations appeared to reach steady state by: Day 5
SMILES: N#C[C@@H]1C[C@@H]2C[C@@H]2N1C(=O)[C@@H](N)C12CC3CC(O)(CC(O)(C3)C1)C2 [5-OH-Saxagliptin, 5-hydroxy-saxagliptin]

Reference: paper PMC3889317 (Diabetes Therapy, 2013)
